Article PMC9851200, “Multiparameter phenotypic screening for endogenous TFEB and TFE3 translocation identifies novel chemical series modulating lysosome function” (Autophagy, 2022)

Assays:
Type in all cases: binding
[1] = molecular target: kinases (KINOMEscan panel) (Homo sapiens, UniProt P00519, E255K); conditions: NEW KINOMEscan
[2] = molecular target: kinases (KINOMEscan panel) (Homo sapiens, UniProt Q05655); conditions: kinase PRKCD; NEW KINOMEscan
[3] = molecular target: kinases (KINOMEscan panel) (Homo sapiens, UniProt P42336, Q546K); conditions: kinase PIK3CA(Q546K); NEW KINOMEscan
kinases (KINOMEscan panel) (Homo sapiens, UniProt P42336, Q546K), sequence (P42336 whole entry Q546K): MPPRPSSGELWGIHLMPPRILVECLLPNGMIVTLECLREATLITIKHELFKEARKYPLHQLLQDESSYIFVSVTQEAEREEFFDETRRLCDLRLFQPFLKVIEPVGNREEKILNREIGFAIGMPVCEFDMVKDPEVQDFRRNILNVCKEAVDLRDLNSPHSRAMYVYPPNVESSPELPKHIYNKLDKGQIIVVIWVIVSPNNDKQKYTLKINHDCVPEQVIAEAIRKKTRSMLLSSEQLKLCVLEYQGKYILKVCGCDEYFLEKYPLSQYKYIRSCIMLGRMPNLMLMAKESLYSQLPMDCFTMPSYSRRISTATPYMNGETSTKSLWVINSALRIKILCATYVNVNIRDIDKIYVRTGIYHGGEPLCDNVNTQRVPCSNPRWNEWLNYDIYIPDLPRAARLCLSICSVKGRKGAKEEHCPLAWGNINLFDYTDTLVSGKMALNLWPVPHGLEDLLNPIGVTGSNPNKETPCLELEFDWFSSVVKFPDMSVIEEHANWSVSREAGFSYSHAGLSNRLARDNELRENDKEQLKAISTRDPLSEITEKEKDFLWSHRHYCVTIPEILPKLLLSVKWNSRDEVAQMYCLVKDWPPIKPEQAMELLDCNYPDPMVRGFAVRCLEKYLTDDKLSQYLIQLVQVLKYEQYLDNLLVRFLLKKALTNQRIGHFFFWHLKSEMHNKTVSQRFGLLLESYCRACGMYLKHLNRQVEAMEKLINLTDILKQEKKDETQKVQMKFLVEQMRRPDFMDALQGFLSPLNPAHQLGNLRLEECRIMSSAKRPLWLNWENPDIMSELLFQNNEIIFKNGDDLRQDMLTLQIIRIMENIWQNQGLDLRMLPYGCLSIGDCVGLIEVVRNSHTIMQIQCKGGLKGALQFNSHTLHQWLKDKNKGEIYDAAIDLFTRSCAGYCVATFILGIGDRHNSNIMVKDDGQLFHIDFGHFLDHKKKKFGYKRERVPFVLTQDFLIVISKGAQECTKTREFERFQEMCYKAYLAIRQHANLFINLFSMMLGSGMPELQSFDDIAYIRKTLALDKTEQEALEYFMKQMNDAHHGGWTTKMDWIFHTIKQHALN

[4] = molecular target: kinases (KINOMEscan panel) (Homo sapiens, UniProt P08581, Y1235D); conditions: kinase MET(Y1235D); NEW KINOMEscan
kinases (KINOMEscan panel) (Homo sapiens, UniProt P08581, Y1235D), sequence (P08581 25-1390 Y1235D): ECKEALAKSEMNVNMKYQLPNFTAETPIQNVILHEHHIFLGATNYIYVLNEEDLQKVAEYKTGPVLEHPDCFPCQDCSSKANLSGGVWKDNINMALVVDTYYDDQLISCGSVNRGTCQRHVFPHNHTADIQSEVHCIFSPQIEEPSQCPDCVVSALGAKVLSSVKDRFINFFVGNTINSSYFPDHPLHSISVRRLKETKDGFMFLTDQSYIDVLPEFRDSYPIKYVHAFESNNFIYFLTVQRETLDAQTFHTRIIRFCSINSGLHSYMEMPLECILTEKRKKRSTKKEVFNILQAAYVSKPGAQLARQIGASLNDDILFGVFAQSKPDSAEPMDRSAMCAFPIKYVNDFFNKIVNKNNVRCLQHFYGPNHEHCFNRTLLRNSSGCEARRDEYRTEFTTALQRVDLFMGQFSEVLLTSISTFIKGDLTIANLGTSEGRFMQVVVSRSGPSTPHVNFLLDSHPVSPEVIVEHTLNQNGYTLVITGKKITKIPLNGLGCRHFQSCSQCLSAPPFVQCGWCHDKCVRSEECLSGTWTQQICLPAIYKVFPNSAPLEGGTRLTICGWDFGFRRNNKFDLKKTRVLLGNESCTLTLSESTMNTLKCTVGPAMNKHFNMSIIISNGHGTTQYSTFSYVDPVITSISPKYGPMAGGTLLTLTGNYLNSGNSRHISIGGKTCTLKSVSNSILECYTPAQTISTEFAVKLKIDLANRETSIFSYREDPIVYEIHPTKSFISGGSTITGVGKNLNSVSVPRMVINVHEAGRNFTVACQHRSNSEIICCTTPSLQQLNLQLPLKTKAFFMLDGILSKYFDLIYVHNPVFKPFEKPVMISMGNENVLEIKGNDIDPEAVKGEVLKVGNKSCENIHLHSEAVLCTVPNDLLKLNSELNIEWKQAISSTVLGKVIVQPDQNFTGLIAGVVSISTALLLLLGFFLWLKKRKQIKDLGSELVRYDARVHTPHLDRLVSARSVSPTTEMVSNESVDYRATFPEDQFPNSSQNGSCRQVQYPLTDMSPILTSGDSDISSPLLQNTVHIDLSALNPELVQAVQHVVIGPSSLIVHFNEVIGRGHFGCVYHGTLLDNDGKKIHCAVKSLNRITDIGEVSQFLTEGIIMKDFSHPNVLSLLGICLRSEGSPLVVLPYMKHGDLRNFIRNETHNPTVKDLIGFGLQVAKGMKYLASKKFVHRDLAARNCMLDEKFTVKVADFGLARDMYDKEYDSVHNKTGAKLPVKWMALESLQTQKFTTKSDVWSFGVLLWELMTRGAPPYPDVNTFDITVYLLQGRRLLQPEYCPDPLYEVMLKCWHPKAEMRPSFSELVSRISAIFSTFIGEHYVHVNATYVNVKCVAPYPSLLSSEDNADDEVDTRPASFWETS

[5] = molecular target: T1, kinases (KINOMEscan panel) (Homo sapiens, UniProt Q8WXR4); conditions: MYO3B; NEW KINOMEscan
T1 sequence (Q8WXR4 1-1341): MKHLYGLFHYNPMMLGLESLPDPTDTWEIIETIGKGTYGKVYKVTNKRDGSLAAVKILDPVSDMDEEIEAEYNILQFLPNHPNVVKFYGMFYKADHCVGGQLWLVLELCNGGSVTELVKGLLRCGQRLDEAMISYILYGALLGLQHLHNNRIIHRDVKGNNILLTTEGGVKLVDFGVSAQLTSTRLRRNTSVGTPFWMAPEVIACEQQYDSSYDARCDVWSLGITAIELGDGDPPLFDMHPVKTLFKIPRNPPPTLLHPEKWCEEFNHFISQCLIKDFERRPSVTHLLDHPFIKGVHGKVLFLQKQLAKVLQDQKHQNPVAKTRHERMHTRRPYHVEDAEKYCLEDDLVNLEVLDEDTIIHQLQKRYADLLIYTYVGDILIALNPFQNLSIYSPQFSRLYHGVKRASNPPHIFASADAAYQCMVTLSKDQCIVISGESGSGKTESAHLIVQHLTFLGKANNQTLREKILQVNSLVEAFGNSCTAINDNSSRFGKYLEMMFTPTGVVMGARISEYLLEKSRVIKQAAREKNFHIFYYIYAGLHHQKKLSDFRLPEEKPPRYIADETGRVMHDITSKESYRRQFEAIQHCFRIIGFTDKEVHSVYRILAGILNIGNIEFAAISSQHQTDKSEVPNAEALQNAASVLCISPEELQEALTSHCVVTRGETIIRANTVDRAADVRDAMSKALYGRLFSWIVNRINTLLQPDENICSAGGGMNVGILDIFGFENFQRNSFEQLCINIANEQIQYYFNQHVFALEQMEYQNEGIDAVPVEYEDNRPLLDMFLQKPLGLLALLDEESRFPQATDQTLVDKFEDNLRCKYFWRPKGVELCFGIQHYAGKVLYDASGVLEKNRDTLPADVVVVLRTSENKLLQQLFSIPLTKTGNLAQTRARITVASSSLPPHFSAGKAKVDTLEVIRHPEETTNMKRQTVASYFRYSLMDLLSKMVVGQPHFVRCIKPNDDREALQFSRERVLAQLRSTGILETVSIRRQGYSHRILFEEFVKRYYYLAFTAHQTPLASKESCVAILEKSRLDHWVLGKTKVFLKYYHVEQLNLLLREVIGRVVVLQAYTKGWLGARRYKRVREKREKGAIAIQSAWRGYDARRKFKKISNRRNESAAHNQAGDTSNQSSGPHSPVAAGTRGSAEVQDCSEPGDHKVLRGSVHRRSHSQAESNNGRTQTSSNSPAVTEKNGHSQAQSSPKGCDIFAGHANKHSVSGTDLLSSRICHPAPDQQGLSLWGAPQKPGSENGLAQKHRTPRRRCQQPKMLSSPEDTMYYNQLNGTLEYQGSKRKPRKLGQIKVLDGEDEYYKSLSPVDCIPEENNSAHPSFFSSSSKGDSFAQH

[6] = molecular target: T2, kinases (KINOMEscan panel) (Homo sapiens, UniProt P51813); conditions: BMX; NEW KINOMEscan
T2 sequence (P51813 1-675): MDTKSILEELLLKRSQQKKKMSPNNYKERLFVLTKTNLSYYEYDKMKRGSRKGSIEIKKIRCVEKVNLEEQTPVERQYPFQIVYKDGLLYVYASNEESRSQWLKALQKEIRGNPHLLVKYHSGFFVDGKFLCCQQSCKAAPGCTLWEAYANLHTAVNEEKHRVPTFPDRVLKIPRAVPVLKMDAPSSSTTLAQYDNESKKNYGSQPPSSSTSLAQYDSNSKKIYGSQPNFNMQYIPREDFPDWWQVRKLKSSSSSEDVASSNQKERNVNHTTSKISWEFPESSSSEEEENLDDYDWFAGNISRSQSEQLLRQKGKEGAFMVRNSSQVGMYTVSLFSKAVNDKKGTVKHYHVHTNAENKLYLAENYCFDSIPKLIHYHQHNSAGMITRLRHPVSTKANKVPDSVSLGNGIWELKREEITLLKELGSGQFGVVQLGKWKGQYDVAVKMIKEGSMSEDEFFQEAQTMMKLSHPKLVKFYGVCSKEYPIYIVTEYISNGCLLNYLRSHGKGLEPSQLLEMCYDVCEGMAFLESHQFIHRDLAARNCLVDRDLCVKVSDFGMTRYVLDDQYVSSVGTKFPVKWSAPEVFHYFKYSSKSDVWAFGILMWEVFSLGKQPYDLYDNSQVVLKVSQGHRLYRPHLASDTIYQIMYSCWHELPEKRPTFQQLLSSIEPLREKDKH

kinases (KINOMEscan panel) (Homo sapiens, UniProt Q05655), sequence (Q05655 whole entry): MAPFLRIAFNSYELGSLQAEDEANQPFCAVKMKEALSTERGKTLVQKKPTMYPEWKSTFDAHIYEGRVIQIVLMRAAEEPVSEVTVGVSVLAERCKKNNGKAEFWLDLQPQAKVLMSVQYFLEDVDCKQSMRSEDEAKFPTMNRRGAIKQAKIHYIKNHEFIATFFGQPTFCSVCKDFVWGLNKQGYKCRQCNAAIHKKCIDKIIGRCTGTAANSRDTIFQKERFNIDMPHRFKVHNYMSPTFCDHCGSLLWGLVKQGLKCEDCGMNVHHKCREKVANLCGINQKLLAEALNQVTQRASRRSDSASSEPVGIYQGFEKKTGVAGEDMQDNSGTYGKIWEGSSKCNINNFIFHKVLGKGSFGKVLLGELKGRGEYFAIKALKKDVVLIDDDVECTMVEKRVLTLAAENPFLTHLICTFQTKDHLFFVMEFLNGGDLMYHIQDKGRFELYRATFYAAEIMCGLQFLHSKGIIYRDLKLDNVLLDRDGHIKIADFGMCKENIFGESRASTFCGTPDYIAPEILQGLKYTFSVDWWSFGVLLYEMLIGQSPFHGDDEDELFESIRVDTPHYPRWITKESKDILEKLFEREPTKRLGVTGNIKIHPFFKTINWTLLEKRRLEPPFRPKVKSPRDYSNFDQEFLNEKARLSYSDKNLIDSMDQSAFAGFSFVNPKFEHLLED
kinases (KINOMEscan panel) (Homo sapiens, UniProt P00519, E255K), sequence (P00519 whole entry E255K): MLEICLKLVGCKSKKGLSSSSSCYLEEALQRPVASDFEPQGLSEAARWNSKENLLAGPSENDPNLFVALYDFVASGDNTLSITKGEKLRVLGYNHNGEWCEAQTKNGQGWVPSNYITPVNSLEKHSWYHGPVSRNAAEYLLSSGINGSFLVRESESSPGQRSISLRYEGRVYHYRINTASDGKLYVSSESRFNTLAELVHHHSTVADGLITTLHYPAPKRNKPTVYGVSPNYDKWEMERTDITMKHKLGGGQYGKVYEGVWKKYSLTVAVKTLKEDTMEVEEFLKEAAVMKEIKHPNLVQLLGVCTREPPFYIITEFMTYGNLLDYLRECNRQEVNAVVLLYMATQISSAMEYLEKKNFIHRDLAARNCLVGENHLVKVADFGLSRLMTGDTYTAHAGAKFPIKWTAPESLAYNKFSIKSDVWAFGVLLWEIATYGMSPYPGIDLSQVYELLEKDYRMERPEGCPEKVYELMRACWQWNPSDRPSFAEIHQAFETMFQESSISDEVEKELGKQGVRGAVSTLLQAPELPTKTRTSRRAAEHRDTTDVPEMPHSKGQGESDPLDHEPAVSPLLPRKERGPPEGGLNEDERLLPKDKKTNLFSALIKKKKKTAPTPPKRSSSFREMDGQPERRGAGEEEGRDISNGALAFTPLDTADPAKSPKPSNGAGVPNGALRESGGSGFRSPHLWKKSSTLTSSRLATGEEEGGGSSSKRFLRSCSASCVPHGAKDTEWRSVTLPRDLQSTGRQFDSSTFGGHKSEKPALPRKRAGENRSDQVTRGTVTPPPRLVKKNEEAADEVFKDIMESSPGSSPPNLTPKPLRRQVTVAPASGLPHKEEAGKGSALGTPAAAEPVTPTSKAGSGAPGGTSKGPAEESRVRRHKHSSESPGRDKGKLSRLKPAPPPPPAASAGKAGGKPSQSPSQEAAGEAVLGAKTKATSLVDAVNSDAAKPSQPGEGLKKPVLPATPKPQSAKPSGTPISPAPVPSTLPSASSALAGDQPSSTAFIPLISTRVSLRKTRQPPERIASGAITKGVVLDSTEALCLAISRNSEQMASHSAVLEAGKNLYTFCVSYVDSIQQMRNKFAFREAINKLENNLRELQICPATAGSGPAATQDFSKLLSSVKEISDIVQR

Structure (SMILES)	KINOMEscan ABL1(E255K)-phosphorylated [1]	KINOMEscan PRKCD [2]	KINOMEscan PIK3CA(Q546K) [3]	KINOMEscan MET(Y1235D) [4]	KINOMEscan MYO3B [5]	KINOMEscan BMX [6]
Cc1cccc(-c2nc(Nc3ccc4nn(C)cc4c3)c3ccccc3n2)n1 [NK167]	15	21	0	7	0	0
Cc1cccc(-c2nc(N(C)c3ccc4ncsc4c3)c3ccccc3n2)n1 [NK-161]	22	16	7	1	1	6
